Experimental data reported in patent publication US9540314B2, “N-cycloalkyl-N-[(cycloalkenylphenyl)methylene]-(thio) carboxamide derivatives” (BAYER INTELLECTUAL PROPERTY GMBH, priority 2012, dated 2017).
Marks after values point to notes of the source that are not given here.

How the values were obtained:
[1] = log P by HPLC on a reversed-phase column (C 18), EEC Directive 79/831 Annex V.A8; format: physicochemical; conditions: HPLC C 18, 40° C., 0.1% aqueous formic acid and acetonitrile; for logP: Table 1, several values = mixture of 2 or more isomers; for chromatographic logP: reversed-phase HPLC column (C 18), Table 2, compounds of formula (IIa)
Description: In table 1, the log P values were determined in accordance with EEC Directive 79/831 Annex V.A8 by HPLC (High Performance Liquid Chromatography) on a reversed-phase column (C 18), using the method described below:
Temperature: 40° C.; Mobile phases: 0.1% aqueous formic acid and acetonitrile; linear gradient from 10% acetonitrile to 90% acetonitrile.
Calibration was carried out using unbranched alkan-2-ones (comprising 3 to 16 carbon atoms) with known log P values (determination of the log P values by the retention times using linear interpolation between two successive alkanones). lambda-max-values were determined using UV-spectra from 200 nm to 400 nm and the peak values of the chromatographic signals.

Puccinia recondita = experiment: In vivo preventive test on Puccinia recondita (brown rust on wheat); conditions: 500 ppm of active ingredient; wheat plants, preventive spray; grading 12 days after contamination
Description: (§1) The active ingredients tested are prepared by homogenization in a mixture of acetone/tween/DMSO, and then diluted with water to obtain the desired active material concentration.
Wheat plants (“Scipion” variety), sown in starter cups on a 50/50 peat soil pozzolana substrate and grown at 22° C., are treated at the 1 leaf stage (10 cm height) by spraying with the active ingredient prepared as described above. Plants, used as controls, are treated with the mixture of acetone/tween/DMSO/water not containing the active material.
(§2) After 24 hours, the plants are contaminated by spraying the leaves with an aqueous suspension of Puccinia recondita spores (100 000 spores per mL). The spores are collected from an infected plant and are suspended in water containing 2.5 mL/L of Tween 80 at 10%. The contaminated wheat plants are incubated for 24 hours at 20° C. and at 100% relative humidity, and then for 10 days at 20° C. and at 70-80% relative humidity.
Grading (% of efficacy) is carried out 12 days after the contamination, in comparison with the control plants.
Under these conditions, good (at least 70%) to total protection is observed at a dose of 500 ppm of active ingredient with the following compounds from table I: […]

Uromyces appendiculatus = experiment: In vivo preventive test on Uromyces appendiculatus (bean rust); conditions: bean plants; for protection: Table K2 comparison with saturated analogues, 500 ppm, preventive, 11 days after contamination
Description: as §1
as §2, with “of Uromyces appendiculatus” for “of Puccinia recondita”, “spores (150” for “spores (100”, “from” for “from an”, “infected plants” for “infected plant”, “contaminated bean” for “contaminated wheat”
Grading (% of efficacy) is carried out 11 days after the contamination, in comparison with the control plants.

Pyrenophora teres = experiment: In vivo preventive test on Pyrenophora teres (barley); conditions: Table H2; 100 ppm, barley plants, preventive, grading 14 days after contamination
Description: as §1
Barley plants (“Plaisant” variety), sown in starter cups on a 50/50 peat soil pozzolana substrate and grown at 22° C., are treated at the 1 leaf stage (10 cm height) by spraying with the active ingredient prepared as described above. Plants, used as controls, are treated with the mixture of acetone/tween/DMSO/water not containing the active material.
After 24 hours, the plants are contaminated by spraying the leaves with an aqueous suspension of Pyrenophora teres spores (12 000 spores per mL). The spores are collected from a 12-day-old culture.
The contaminated barley plants are incubated for 48 hours at 20° C. and at 100% relative humidity, and then for 12 days at 20° C. at 70-80% relative humidity.
Grading (% of efficacy) is carried out 14 days after the contamination, in comparison with the control plants.
Under these conditions, good (at least 70%) to total protection is observed at a dose of 500 ppm of active ingredient with the following compounds from table H1: […]

[2] = dose 100 ppm, comparison with saturated analogues (table K2)
[3] = dose 500 ppm, comparison with saturated analogues (table K2)
[4] = 500 ppm of active ingredient, preventive spray, grading 11 days after contamination (table K1)

CC1CC=C(c2ccc(F)cc2CN(C(=O)c2c(C(F)F)nn(C)c2Cl)C2CC2)CC1 (racemic) [I.47]
logP [1]: 5.14
Efficacy (Puccinia recondita): 81%

CC1CC=C(c2ccc(F)cc2CN(C(=S)c2c(C(F)F)nn(C)c2Cl)C2CC2)CC1 (racemic) [I.48]
logP [1]: 5.77

Cn1nc(C(F)F)c(C(=O)N(Cc2ccccc2C2CCCC2)C2CC2)c1F [CMP4, N-(2-cyclopentylbenzyl)-N-cyclopropyl-3-(difluoromethyl)-5-fluoro-1-methyl-1H-pyrazole-4-carboxamide, reference compound]
protection (Uromyces appendiculatus): poor (less than 20%) protection or plant damages
Efficacy (Uromyces appendiculatus; [2]): 100%

Cn1cc(C(=O)N(Cc2ccccc2C2CCCCC2)C2CC2)c(C(F)F)n1 [CMP5, N-(2-cyclohexylbenzyl)-N-cyclopropyl-3-(difluoromethyl)-1-methyl-1H-pyrazole-4-carboxamide, reference compound]
protection (Uromyces appendiculatus): poor (less than 20%) protection or plant damages
Efficacy (Uromyces appendiculatus; [2]): 0%

Cn1nc(C(F)F)c(C(=O)N(Cc2ccccc2C2CCCCC2)C2CC2)c1F [CMP6, N-(2-cyclohexylbenzyl)-N-cyclopropyl-3-(difluoromethyl)-5-fluoro-1-methyl-1H-pyrazole-4-carboxamide, reference compound]
protection (Uromyces appendiculatus): poor (less than 20%) protection or plant damages
Efficacy (Uromyces appendiculatus; [2]): 38^(d) %

Cn1nc(C(F)F)c(C(=O)N(Cc2ccccc2C2CCCCC2)C2CC2)c1Cl [CMP7, 5-chloro-N-(2-cyclohexylbenzyl)-N-cyclopropyl-3-(difluoromethyl)-1-methyl-1H-pyrazole-4-carboxamide, reference compound]
protection (Uromyces appendiculatus): poor (less than 20%) protection or plant damages
Efficacy (Uromyces appendiculatus; [2]): 0%
Efficacy (Uromyces appendiculatus; [3]): 13%

Cn1cc(C(=O)N(Cc2ccccc2C2=CCCC2)C2CC2)c(C(F)F)c1 [I.5]
logP [1]: 4.13

O=C(c1ccsc1I)N(Cc1ccccc1C1=CCCC1)C1CC1 [I.6]
logP [1]: 4.85
Efficacy (Uromyces appendiculatus; [4]): 88%

Cn1nc(C(F)F)c(C(=O)N(Cc2cc(C3=CCCC3)ccc2Cl)C2CC2)c1Cl [I.8]
logP [1]: 4.82
Efficacy (Pyrenophora teres): 71%

Cn1nc(C(F)F)c(C(=O)N(Cc2cc(C3=CCCC3)ccc2Cl)C2CC2)c1F [I.9]
logP [1]: 4.59
Efficacy (Pyrenophora teres): 79%

Cn1cc(C(=O)N(Cc2cc(C3=CCCC3)ccc2Cl)C2CC2)c(C(F)F)n1 [I.10]
logP [1]: 4.14

Cn1cc(C(=O)N(Cc2cc(C3=CCCC3)ccc2Cl)C2CC2)c(C(F)F)c1 [I.11]
logP [1]: 4.63

O=C(c1ccsc1I)N(Cc1cc(C2=CCCC2)ccc1Cl)C1CC1 [I.12]
logP [1]: 5.51

Cn1nc(C(F)F)c(C(=O)N(Cc2cc(Cl)ccc2C2=CCCC2)C2CC2)c1F [I.20]
logP [1]: 4.54
Efficacy (Pyrenophora teres): 97%

O=C(c1ccsc1I)N(Cc1cc(Cl)ccc1C1=CCCC1)C1CC1 [I.21]
logP [1]: 5.36

Cn1cc(C(=O)N(Cc2cc(Cl)ccc2C2=CCCC2)C2CC2)c(C(F)F)n1 [I.22]
logP [1]: 4.06
Efficacy (Pyrenophora teres): 71%

Cn1nc(C(F)F)c(C(=O)N(Cc2cc(Cl)ccc2C2=CCCC2)C2CC2)c1Cl [I.23]
logP [1]: 4.74

Cn1cc(C(=O)N(Cc2cc(Cl)ccc2C2=CCCC2)C2CC2)c(C(F)F)c1 [I.24]
logP [1]: 4.58

Cn1nc(C(F)F)c(C(=O)N(Cc2ccccc2C2=CCCCC2)C2CC2)c1Cl [I.29]
logP [1]: 4.66
Efficacy (Puccinia recondita): 81%
Efficacy (Uromyces appendiculatus; [4]): 84%
Efficacy (Uromyces appendiculatus; [2]): 35%
Efficacy (Uromyces appendiculatus; [3]): 84%

Cn1nc(C(F)F)c(C(=O)N(Cc2cc(C3=CCCCC3)ccc2Cl)C2CC2)c1F [I.33]
logP [1]: 4.92
Efficacy (Pyrenophora teres): 86%

Cn1nc(C(F)F)c(C(=O)N(Cc2cc(C3=CCCCC3)ccc2Cl)C2CC2)c1Cl [I.34]
logP [1]: 5.14
Efficacy (Pyrenophora teres): 79%

O=C(c1ccsc1I)N(Cc1cc(C2=CCCCC2)ccc1Cl)C1CC1 [I.35]
logP [1]: 5.87

Cn1cc(C(=O)N(Cc2cc(C3=CCCCC3)ccc2Cl)C2CC2)c(C(F)F)c1 [I.36]
logP [1]: 4.93

Cn1cc(C(=O)N(Cc2cc(C3=CCCCC3)ccc2Cl)C2CC2)c(C(F)F)n1 [I.37]
logP [1]: 4.46

Cn1nc(C(F)F)c(C(=O)N(Cc2cc(Cl)ccc2C2=CCCCC2)C2CC2)c1Cl [I.38]
logP [1]: 5.11

Cn1cc(C(=O)N(Cc2cc(Cl)ccc2C2=CCCCC2)C2CC2)c(C(F)F)n1 [I.39]
logP [1]: 4.44

Cn1cc(C(=O)N(Cc2cc(Cl)ccc2C2=CCCCC2)C2CC2)c(C(F)F)c1 [I.40]
logP [1]: 4.93

Cn1nc(C(F)F)c(C(=O)N(Cc2cc(Cl)ccc2C2=CCCCC2)C2CC2)c1F [I.41]
logP [1]: 4.88

O=C(c1ccsc1I)N(Cc1cc(Cl)ccc1C1=CCCCC1)C1CC1 [I.42]
logP [1]: 5.78

O=C(c1ccsc1I)N(Cc1ccccc1C1=CCCCCC1)C1CC1 [I.52]
logP [1]: 5.78
Efficacy (Uromyces appendiculatus; [4]): 75%

Cn1nc(C(F)F)c(C(=O)N(Cc2cc(Cl)ccc2C2=CCCCCC2)C2CC2)c1F [I.54]
logP [1]: 5.31

Cn1cc(C(=O)N(Cc2cc(Cl)ccc2C2=CCCCCC2)C2CC2)c(C(F)F)c1 [I.55]
logP [1]: 5.34

Cn1nc(C(F)F)c(C(=O)N(Cc2cc(Cl)ccc2C2=CCCCCC2)C2CC2)c1Cl [I.56]
logP [1]: 5.54

Cn1cc(C(=O)N(Cc2cc(Cl)ccc2C2=CCCCCC2)C2CC2)c(C(F)F)n1 [I.57]
logP [1]: 4.87
Efficacy (Pyrenophora teres): 79%

O=C(c1ccsc1I)N(Cc1cc(Cl)ccc1C1=CCCCCC1)C1CC1 [I.58]
logP [1]: 6.27

CC(NC1CC1)c1ccccc1C1=CCCC1 (stereo not shown) [IIa.1, N-{1-[2-(cyclopent-1-en-1-yl)phenyl]ethyl}cyclopropanamine]
chromatographic logP [1]: 1.72

C1=C(c2ccccc2CNC2CC2)CCC1 [IIa.2, N-[2-(cyclopent-1-en-1-yl)benzyl]cyclopropanamine]
chromatographic logP [1]: 1.19

Clc1ccc(C2=CCCC2)c(CNC2CC2)c1 [IIa.3, N-[5-chloro-2-(cyclopent-1-en-1-yl)benzyl]cyclopropanamine]
chromatographic logP [1]: 1.28

CC(NC1CC1)c1cc(F)ccc1C1=CCCC1 (stereo not shown) [IIa.4, N-{1-[2-(cyclopent-1-en-1-yl)-5-fluorophenyl]ethyl}cyclopropanamine]
chromatographic logP [1]: 1.56

Clc1ccc(C2=CCCC2)cc1CNC1CC1 [IIa.5, N-[2-chloro-5-(cyclopent-1-en-1-yl)benzyl]cyclopropanamine]
chromatographic logP [1]: 1.39

C1=C(c2ccccc2CNC2CC2)CCCC1 [IIa.6, N-[2-(cyclohex-1-en-1-yl)benzyl]cyclopropanamine]
chromatographic logP [1]: 1.37

Clc1ccc(C2=CCCCC2)c(CNC2CC2)c1 [IIa.7, N-[5-chloro-2-(cyclohex-1-en-1-yl)benzyl]cyclopropanamine]
chromatographic logP [1]: 1.45

Clc1ccc(C2=CCCCC2)cc1CNC1CC1 [IIa.8, N-[2-chloro-5-(cyclohex-1-en-1-yl)benzyl]cyclopropanamine]
chromatographic logP [1]: 1.45

C1=C(c2ccccc2CNC2CC2)CCCCC1 [IIa.9, N-[2-(cyclohept-1-en-1-yl)benzyl]cyclopropanamine]
chromatographic logP [1]: 1.45

Clc1ccc(C2=CCCCCC2)c(CNC2CC2)c1 [IIa.10, N-[5-chloro-2-(cyclohept-1-en-1-yl)benzyl]cyclopropanamine]
chromatographic logP [1]: 1.71
